[5FU] = 5-fluorouracil base replacing uracil
What was measured:
cancer cells = assay: Real-time qRT-PCR of modified miR entry into cancer cells; type: cell-based, human; conditions: quantitative Real-Time PCR
Method: Real-time qRT-PCR analysis of nucleic acid expression. The expression levels of microRNAs in cancer cells were quantified. Briefly, the primers specific to the microRNA of interest and an internal control RNU44 gene were purchased from Ambion. cDNA synthesis was performed by the High Capacity cDNA Synthesis Kit (Applied Biosystems) with miRNA-specific primers. Real-time qRT-PCR was carried out on an Applied Biosystems 7500 Real-Time PCR machine with miRNA-specific primers by TaqMan Gene Expression Assay (Applied Biosystems). Expression level of the exemplary miRs of the present disclosure was calculated by the ΔΔCT method based on the internal control RNU44, normalized to the control group and plotted as relative quantification.

[1] = tested on: colorectal cancer stem cell xenograft; assay: Colorectal cancer stem cell mouse xenograft model; type: in vivo; conditions: cells pre transfected, eight weeks after injection, n=8
Method: Mouse subcutaneous tumor implantation model: Two days before injection, HCT116 colorectal cancer stem cells or MDA-MB-231 breast cancer cells were plated at 5×10^5/well in a 6-well ultra low attachment plate. 20 μL of the virus or 100 pmole exemplary modified miR-129 or modified miR-15a were used to transduce or transfect cells. Forty-eight hours later, cells were collected and re-suspended at 10^6/ml in DMEM/F12 knockout media with 30% matrigel. Ten-twelve week-old NOD/SCID mice (Jackson Laboratories, Bar Harbor, […], USA) were used for tumor implantation. The mice were anesthetized by isoflurane inhalation. 100 μL of cell suspension was injected subcutaneously into both sides of the lower back area. The tumor size was measured using a caliper, and tumor volume was calculated using the formula V=length×width^2/2.
Modified miR-15a inhibits cancer development and progression in vivo. A colorectal cancer stem cell mouse xenograft model was established that included colorectal cancer cells that have been either pre transfected with modified miR-15a or negative control miRNA. Eight weeks after injection, tumors were measured and harvested.

CU^FU^FU^FU^FU^FGCGGU^FCU^FGGGCU^FU^FGC (CUUUUUGCGGUCUGGGCUUGC; RNA, [5FU] at 2, 3, 4, 5, 6, 11, 13, 18, 19, backbone not given here) [modified miR-129]
entry into cancer cells (cancer cells): enter cancer cells

U^FAGCAGCACAU^FAAU^FGGU^FU^FU^FGU^FG (UAGCAGCACAUAAUGGUUUGUG; RNA, [5FU] at 1, 11, 14, 17, 18, 19, 21, backbone not given here) [modified miR-15a]
reduction in tumor size [1]: > 25 ×

From patent publication US12319913B2, “5-halouracil-modified microRNAs and their use in the treatment of cancer” (The Research Foundation for The State University of New York, priority 2018, dated 2025)
